Laboratory results reported in PMC9500072, “Topical application of an irreversible small molecule inhibitor of lysyl oxidases ameliorates skin scarring and fibrosis” (Nature Communications, 2022).
Where “and” joins values, the source holds several entries; their conditions need not be identical. Identical values can stand only once. Entries after “also recorded” stand apart in the source; their conditions may differ.

Key:
Dog Aorta LOX = Dog Aorta LOX (Canis lupus familiaris, UniProt A0A8I3N9H6); format: biochemical
Description: The measurement of the enzymatic activity of all lysyl oxidase family members was based on the detection of hydrogen peroxide with an Amplex-Red oxidation assay, as previously described; miniaturized in 384 well formats, with the appropriate combination of substrate and assay buffer for each individual enzyme. After a 30 min pre-incubation of the enzyme at 37 °C with the test compound (or with different incubation times for the time-dependency assay), one volume of reaction mixture containing 120 μM Amplex Red (AR) (Life Technologies), 1.5 U/mL horseradish peroxidase (HRP) (Sigma-Aldrich) and the specific substrate was added to each sample. The relative fluorescence units (RFU) were then measured every 2.5 min for 30 min at 37 °C, excitation 565 nm and emission 590, on a BMG Clariostar Microplate Reader. All the substrates were used at concentrations corresponding to their Km towards the corresponding enzyme, or with a range of different concentrations for the substrate competition experiments.
Lysyl oxidases assay buffer contained 1.2 M urea, 50 mM sodium borate buffer, pH 8.2 and 100 µM β-aminoproprionitrile (BAPN, Sigma-Aldrich) was used for low control. […]

Purinergic P2X = test: Eurofins panel 268700; format: binding, rabbit; conditions: 10 µM
hERG potassium channel = hERG potassium channel (Homo sapiens, UniProt Q12809); test: Eurofins panel 265900; format: binding
Thyroid Hormone = test: Eurofins panel 285900; format: binding, rat; conditions: 10 µM
[1] = tested on: primary human dermal fibroblasts; test: qPCR COL1A1 and LOX gene expression; format: cell-based; design: key to qPCR COLIAI / qPCRLOX: relative expression by 2^−ΔΔCt, GAPDH/PGK1 housekeeping
Description: Changes in COL1A1 and LOX gene expression in PXS-4787 treated cells were done using primary human dermal fibroblasts (50,000) seeded in a 6-well plate under Scar-in-a-jar media. The cells were incubated with 0 µM, 1 µM, and 10 µM PXS-4787 treatment for 48 h. mRNA was extracted using RNeasy mini kit® according to the manufacturer’s protocol (Qiagen Gmbh). The total concentration and purity of RNA were determined using a NAnodrop 2000C (Thermo Scientific, USA). For reverse transcription, mRNA was converted to cDNA using QuantiTect Reverse Transcription kit (Qiagen; Catalog no. 205311) according to the manufacturer’s protocol. Quantitative real-time RT-PCR was conducted using SYBR Green Master Mix (Qiagen; Catalog no. 204143) and Rotor gene Q thermocycler (Qiagen). The reactions were carried out in triplicate in 20 µl total volume containing 1 µl cDNA and 2 µl primers. The QuantiTect Primer assay for COL1A1 (Catalog no. QT00037793), LOX (Catalog no. QT00017311) were used. GAPDH (Catalog no. QT00079247) and PGK1 (Catalog no. 249900) were used as a housekeeping gene. The data were analyzed using Rotor geneQ software and the relative gene expression was calculated using the 2−^(∆∆c (t)) method. Three biological samples were used for each condition.

Dopamine D3 = Dopamine D3 (Homo sapiens, UniProt P35462); test: Eurofins panel 219800; format: binding
GABAA, Muscimol, Central = test: Eurofins panel 226500; format: binding, rat; conditions: 10 µM
[2] = tested on: primary human fibroblasts; test: Cell viability MTS assay; format: cell-based
Description: Cell proliferation was measured using a standard 3-(4,5-dimethylthiazol-2-yl)-5-(3-carboxymethoxypheny1)-2-(4-sulfophenyl)-2H-tetrazolium, inner salt (MTS) assay (Cell Titer 96® Aqueous One Solution Cell Proliferation Assay, Promega, Australia) as per the manufacturer’s protocol. Briefly, 2500 primary scar fibroblasts below passage eight were seeded in each well of 96-well plates. The cells then exposed to 0, 1, 2.5, 5, 10, 25, 50, and 100 µM concentrations of PXS-4787 in cell culture media (DMEM-Glutamax™ supplemented with 10% Fetal Bovine Serum and 1% Penicillin/ Streptomycin, Life technologies, USA) for 24, 48 and 72 h. MTS solution (20 µL) was added in each well and incubated for 3.5 h in a humidified chamber at 37 °C and 5% CO2. The absorbance recorded on a UV–visible spectrophotometer (Enspire Multimode plate reader, PerkinElmer®) at 490 nanometers.

HepG2 cells = test: Phospholipidosis in HepG2 cells; format: cell-based; conditions: 0–100 µM
GABAB1A = GABAB1A (Homo sapiens, UniProt Q9UBS5); test: Eurofins panel 228610; format: binding
Endothelin ETB = Endothelin ETB (Homo sapiens, UniProt P24530); test: Eurofins panel 224110; format: binding
LogD = format: physicochemical
[3] = tested on: deep-dermal contact burn scar; test: Porcine burn injury model with tensile strength testing; format: in vivo, pig
[4] = biological target: Cholinesterase, Acetyl, ACES (Homo sapiens, UniProt P22303); test: Eurofins panel 104010; format: biochemical
Cyclooxygenase COX-2 = Cyclooxygenase COX-2 (Homo sapiens, UniProt P35354); test: Eurofins panel 118010; format: biochemical
[5] = tested on: MDCKII cells transfected with P-glycoprotein (Pgp); test: MDCKII-Pgp permeability; format: in vitro ADME; conditions: unaffected by the presence of the Pgp-inhibitor
Description: The penetration of PXS-6302 across a monolayer of cells was tested using Caco-2 or MDCKII cells transfected with P-glycoprotein (Pgp).

Sequence of Dog Aorta LOX (A0A8I3N9H6 entry or part of it): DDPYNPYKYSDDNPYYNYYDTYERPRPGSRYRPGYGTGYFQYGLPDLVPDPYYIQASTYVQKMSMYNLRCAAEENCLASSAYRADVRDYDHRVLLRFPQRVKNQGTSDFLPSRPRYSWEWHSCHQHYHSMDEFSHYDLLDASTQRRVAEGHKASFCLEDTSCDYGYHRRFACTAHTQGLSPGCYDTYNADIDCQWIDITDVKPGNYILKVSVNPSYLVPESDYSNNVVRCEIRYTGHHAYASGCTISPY
Sequence of Cholinesterase, Acetyl, ACES (P22303 32-614): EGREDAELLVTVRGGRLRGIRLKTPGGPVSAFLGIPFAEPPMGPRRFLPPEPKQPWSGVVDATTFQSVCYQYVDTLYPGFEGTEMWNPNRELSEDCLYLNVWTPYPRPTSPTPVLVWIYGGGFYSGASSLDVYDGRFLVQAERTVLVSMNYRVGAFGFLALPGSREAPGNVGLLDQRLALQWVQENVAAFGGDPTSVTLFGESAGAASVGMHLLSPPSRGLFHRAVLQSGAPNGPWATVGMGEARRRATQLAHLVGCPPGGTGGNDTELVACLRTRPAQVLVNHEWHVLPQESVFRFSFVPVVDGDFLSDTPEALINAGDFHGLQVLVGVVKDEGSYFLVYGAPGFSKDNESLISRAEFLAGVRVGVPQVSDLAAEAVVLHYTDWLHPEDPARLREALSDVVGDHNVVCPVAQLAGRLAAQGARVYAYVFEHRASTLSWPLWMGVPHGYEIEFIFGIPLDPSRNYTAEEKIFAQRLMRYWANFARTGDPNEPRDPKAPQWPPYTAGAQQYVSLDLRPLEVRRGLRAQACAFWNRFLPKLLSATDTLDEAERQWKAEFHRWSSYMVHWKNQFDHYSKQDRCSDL
Sequence of GABAB1A (Q9UBS5 15-961 limits assumed): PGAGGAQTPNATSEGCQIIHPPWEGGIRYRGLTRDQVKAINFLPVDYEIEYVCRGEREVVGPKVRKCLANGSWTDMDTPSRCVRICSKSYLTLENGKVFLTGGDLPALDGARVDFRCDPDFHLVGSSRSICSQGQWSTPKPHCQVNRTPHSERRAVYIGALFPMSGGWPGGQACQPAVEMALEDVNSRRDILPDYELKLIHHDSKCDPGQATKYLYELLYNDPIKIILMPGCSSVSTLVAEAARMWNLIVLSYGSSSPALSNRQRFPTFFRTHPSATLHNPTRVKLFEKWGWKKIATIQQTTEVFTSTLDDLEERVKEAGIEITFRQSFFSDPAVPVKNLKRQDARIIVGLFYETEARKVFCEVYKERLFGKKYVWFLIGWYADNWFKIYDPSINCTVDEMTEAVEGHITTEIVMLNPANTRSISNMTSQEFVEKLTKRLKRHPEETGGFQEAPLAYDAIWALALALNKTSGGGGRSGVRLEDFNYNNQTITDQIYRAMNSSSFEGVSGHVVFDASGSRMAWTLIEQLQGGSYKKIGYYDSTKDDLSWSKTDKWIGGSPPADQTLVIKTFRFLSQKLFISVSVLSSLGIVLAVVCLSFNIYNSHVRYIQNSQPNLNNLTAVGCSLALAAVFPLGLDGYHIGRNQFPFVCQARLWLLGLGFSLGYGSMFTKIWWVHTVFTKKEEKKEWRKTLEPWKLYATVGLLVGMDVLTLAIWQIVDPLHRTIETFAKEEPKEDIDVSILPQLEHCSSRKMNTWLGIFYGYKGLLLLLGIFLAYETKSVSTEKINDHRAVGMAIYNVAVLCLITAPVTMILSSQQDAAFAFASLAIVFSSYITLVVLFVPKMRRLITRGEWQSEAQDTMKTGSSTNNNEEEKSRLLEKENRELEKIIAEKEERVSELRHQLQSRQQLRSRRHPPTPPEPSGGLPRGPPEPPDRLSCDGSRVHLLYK
Sequence of Endothelin ETB (P24530 27-442): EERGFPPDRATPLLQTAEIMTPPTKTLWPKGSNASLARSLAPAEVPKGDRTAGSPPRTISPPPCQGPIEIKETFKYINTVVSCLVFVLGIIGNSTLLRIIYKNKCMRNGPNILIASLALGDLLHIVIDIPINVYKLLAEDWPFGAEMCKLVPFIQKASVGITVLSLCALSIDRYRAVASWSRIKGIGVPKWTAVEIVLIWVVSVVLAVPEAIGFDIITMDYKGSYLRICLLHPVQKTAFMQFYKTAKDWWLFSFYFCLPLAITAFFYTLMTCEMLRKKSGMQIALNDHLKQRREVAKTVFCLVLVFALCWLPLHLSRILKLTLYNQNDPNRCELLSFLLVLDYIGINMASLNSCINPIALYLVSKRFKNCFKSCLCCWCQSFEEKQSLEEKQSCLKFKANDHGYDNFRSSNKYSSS
Sequence of Cyclooxygenase COX-2 (P35354 18-604): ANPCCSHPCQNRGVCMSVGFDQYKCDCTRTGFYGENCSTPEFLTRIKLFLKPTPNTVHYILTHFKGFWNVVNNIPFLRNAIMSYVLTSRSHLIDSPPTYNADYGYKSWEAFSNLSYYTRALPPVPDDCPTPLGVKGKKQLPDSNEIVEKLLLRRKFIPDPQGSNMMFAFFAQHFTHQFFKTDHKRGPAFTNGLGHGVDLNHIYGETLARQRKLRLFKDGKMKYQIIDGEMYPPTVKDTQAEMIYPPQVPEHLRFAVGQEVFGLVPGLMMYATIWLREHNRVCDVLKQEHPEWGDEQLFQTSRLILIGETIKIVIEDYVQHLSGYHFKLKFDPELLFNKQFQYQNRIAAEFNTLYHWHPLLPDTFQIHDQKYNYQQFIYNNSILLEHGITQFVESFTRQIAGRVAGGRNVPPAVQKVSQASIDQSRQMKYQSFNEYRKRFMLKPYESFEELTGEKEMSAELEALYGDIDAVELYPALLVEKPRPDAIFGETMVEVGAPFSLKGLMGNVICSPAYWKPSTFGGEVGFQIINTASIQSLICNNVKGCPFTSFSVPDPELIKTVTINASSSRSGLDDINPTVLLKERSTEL
Sequence of hERG potassium channel (Q12809 whole entry): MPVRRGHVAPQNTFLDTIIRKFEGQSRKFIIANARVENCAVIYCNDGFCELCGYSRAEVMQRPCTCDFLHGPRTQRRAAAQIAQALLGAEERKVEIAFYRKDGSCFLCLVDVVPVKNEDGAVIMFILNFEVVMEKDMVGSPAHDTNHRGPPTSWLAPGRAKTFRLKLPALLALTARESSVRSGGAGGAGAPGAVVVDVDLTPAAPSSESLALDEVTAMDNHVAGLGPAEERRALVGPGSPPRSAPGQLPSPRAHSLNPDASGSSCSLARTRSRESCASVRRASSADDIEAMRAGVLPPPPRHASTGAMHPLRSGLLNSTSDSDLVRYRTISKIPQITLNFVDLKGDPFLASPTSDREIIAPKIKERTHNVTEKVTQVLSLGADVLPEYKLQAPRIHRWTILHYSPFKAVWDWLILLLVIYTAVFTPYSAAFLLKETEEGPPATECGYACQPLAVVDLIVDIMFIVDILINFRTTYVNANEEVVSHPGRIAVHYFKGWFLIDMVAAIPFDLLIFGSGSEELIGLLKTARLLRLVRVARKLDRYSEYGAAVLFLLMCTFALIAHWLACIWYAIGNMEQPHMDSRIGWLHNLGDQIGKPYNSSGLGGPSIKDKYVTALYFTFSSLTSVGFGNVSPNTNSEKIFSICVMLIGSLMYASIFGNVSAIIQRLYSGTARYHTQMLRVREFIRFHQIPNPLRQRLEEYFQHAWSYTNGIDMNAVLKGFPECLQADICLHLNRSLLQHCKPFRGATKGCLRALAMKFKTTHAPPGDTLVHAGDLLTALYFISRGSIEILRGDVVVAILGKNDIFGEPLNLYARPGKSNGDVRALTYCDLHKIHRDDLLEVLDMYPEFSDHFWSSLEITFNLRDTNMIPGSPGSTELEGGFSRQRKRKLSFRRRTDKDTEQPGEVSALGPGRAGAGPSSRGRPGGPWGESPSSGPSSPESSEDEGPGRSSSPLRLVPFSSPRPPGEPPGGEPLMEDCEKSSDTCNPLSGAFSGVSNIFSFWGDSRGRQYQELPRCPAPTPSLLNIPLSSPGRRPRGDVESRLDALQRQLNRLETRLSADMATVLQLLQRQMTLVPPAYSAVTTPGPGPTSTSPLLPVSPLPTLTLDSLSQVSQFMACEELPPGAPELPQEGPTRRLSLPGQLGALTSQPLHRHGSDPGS
Sequence of Dopamine D3 (P35462 whole entry): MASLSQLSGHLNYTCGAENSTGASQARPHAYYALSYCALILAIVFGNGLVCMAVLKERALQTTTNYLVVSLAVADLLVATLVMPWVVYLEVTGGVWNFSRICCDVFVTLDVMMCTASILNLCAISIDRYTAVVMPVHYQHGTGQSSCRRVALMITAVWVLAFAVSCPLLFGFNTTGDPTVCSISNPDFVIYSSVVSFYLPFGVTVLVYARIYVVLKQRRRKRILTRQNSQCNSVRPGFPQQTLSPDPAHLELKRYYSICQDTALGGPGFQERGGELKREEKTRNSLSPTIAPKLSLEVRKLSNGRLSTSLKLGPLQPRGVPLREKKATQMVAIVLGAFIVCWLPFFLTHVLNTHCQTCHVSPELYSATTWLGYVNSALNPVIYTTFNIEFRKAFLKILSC

## N#CCCN [BAPN, β-aminoproprionitrile, reference compound]
Dog Aorta LOX
  Dog Aorta LOX pIC50±SD: 5.7 ± 0.1
  IC50: 2130 nM

## NC/C=C(\F)CS(=O)(=O)c1ccccc1 [PXS-4787]
Purinergic P2X
  % Inh.: 8%
hERG potassium channel
  inhibition at 10 µM: 9%
Thyroid Hormone
  % Inh.: 0%
[1]; 0, 1, 10 µM, 48 h
  COL1A1 or LOX RNA levels: No change
[1]; 1μM
  qPCR COLIAI: 0.9946 and 1.0482 and 1.0167
  qPCRLOX: 1.068 and 1.006 and 0.9855
[1]; 10 µM
  qPCR COLIAI: 0.9655 and 0.9268 and 1.013
  qPCRLOX: 0.9777 and 0.8786 and 0.9515
Dopamine D3
  inhibition at 10 µM: 0%
GABAA, Muscimol, Central
  % Inh.: 13%
[2]; 0–100 µM, 24, 48 and 72 h
  fibroblast cell viability: No significant difference in viability; also recorded: no effect
[2]; 1μM, time 0 hrs
  Supp Fig. 1 cell viability MTS reading (quantity not given): 0.5417 and 0.513 and 0.509
[2]; 1μM, time 24 hrs
  Supp Fig. 1 cell viability MTS reading (quantity not given): 0.5067 and 0.503 and 0.5037
[2]; 1μM, time 48 hrs
  Supp Fig. 1 cell viability MTS reading (quantity not given): 0.5417 and 0.513 and 0.509
[2]; 1μM, time 72 hrs
  Supp Fig. 1 cell viability MTS reading (quantity not given): 0.4673 and 0.4607 and 0.4573
[2]; 5μM, time 0 hrs
  Supp Fig. 1 cell viability MTS reading (quantity not given): 0.505 and 0.4817 and 0.4813
[2]; 5μM, time 24 hrs
  Supp Fig. 1 cell viability MTS reading (quantity not given): 0.4947 and 0.4857 and 0.4823
[2]; 5μM, time 48 hrs
  Supp Fig. 1 cell viability MTS reading (quantity not given): 0.505 and 0.4817 and 0.4813
[2]; 5μM, time 72 hrs
  Supp Fig. 1 cell viability MTS reading (quantity not given): 0.461 and 0.4743 and 0.4797
[2]; 10μM, time 0 hrs
  Supp Fig. 1 cell viability MTS reading (quantity not given): 0.5527 and 0.5103 and 0.5143
[2]; 10μM, time 24 hrs
  Supp Fig. 1 cell viability MTS reading (quantity not given): 0.533 and 0.5197 and 0.5183
[2]; 10μM, time 48 hrs
  Supp Fig. 1 cell viability MTS reading (quantity not given): 0.5527 and 0.5103 and 0.5143
[2]; 10μM, time 72 hrs
  Supp Fig. 1 cell viability MTS reading (quantity not given): 0.428 and 0.481 and 0.4927
[2]; 25μM, time 0 hrs
  Supp Fig. 1 cell viability MTS reading (quantity not given): 0.569 and 0.5407 and 0.5403
[2]; 25μM, time 24 hrs
  Supp Fig. 1 cell viability MTS reading (quantity not given): 0.5363 and 0.517 and 0.513
[2]; 25μM, time 48 hrs
  Supp Fig. 1 cell viability MTS reading (quantity not given): 0.569 and 0.5407 and 0.5403
[2]; 25μM, time 72 hrs
  Supp Fig. 1 cell viability MTS reading (quantity not given): 0.45 and 0.5113 and 0.529
[2]; 50μM, time 0 hrs
  Supp Fig. 1 cell viability MTS reading (quantity not given): 0.5427 and 0.5253 and 0.526
[2]; 50μM, time 24 hrs
  Supp Fig. 1 cell viability MTS reading (quantity not given): 0.4977 and 0.5027 and 0.5057
[2]; 50μM, time 48 hrs
  Supp Fig. 1 cell viability MTS reading (quantity not given): 0.5427 and 0.5253 and 0.526
[2]; 50μM, time 72 hrs
  Supp Fig. 1 cell viability MTS reading (quantity not given): 0.5073 and 0.527 and 0.526
[2]; 100μM, time 0 hrs
  Supp Fig. 1 cell viability MTS reading (quantity not given): 0.478 and 0.466 and 0.467
[2]; 100μM, time 24 hrs
  Supp Fig. 1 cell viability MTS reading (quantity not given): 0.468 and 0.457 and 0.456
[2]; 100μM, time 48 hrs
  Supp Fig. 1 cell viability MTS reading (quantity not given): 0.461 and 0.4477 and 0.449
[2]; 100μM, time 72 hrs
  Supp Fig. 1 cell viability MTS reading (quantity not given): 0.4837 and 0.4977 and 0.499
HepG2 cells
  phospholipidosis score: 0
GABAB1A
  inhibition at 10 µM: 6%
Endothelin ETB
  inhibition at 10 µM: 3%

## NC/C=C(\F)C(F)(F)S(=O)(=O)c1ccccc1 [PXS-6302]
LogD
  logD: 1
[3]; 3% cream
  tensile strength, treated vs control scars: no significant differences
[3]; 3% cream once daily from re-epithelialisation to 2 months post-injury
  scar photo score by blinded plastic surgeons vs placebo: significantly better
[3]; 3% cream, p = 0.15
  treated scars with lower Young's modulus than matched vehicle treated scar: 5/6
[4]
  inhibition at 30 µM: 2%
Cyclooxygenase COX-2
  inhibition at 30 µM: 21%
[5]
  MDCKII-Pgp permeability (class in words): high permeability
